Measured values published in paper PMC5172606 (Archives of biochemistry and biophysics, 2016).

Target: T1, human soluble epoxide hydrolase (sEH) (Homo sapiens, UniProt P34913)
T1 sequence (P34913 1-555): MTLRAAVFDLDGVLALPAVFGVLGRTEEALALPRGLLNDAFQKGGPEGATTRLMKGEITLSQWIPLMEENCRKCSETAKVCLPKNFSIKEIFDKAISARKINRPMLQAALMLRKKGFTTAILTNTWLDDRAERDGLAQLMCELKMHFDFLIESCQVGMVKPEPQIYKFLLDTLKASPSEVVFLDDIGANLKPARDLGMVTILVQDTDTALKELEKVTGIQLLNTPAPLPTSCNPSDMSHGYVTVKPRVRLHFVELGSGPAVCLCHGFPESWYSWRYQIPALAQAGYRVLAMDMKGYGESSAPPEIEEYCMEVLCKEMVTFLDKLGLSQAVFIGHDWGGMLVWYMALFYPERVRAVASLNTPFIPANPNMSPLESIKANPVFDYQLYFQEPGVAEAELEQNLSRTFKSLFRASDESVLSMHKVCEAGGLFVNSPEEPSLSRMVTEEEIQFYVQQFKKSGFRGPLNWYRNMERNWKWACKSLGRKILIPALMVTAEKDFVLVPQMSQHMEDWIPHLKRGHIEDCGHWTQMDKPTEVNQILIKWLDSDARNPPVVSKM
Assay: radiometric assay with [3H]-tDPPO substrate
Format: biochemical

IC50: 20 ± 0.5 nM
Substance: UC2389
